Laboratory results reported in patent publication US4600705A, “Gonadoliberin derivatives containing a β-aspartyl group, a process for the preparation thereof and pharmaceutical preparations containing them” (Richter Gedeon Veyteszeti Gyar R.T., priority 1983, dated 1986).

Tests used:
[1] = system: sterlet and catfish mother fishes; assay: spawning (roe deposition / ovulation) of sterlet and catfish mother fishes; assay type: in vivo; conditions: control group under the same conditions
[2] = system: female turkeys; assay: brooding time of female turkeys; assay type: in vivo, turkey
[3] = system: cattle; assay: pregnancy ratio of cattle, dosing simultaneously with insemination; assay type: in vivo; conditions: same dose (100 μg/dose)
[4] = system: blue and silver foxes; assay: extra-seasonal rutting of blue and silver foxes; assay type: in vivo; conditions: single dose of 10 μg

| Substance | ovulation (in words) [1] | brooding time [2] | effect on the pregnancy ratio (in words) [3] | extra-seasonal rutting [4] |
| --- | --- | --- | --- | --- |
| D-Phe^6, desGly^10 -LH-RH-ethylamide | no ovulation occurred | – | – | – |
| native LH-RH: gonadoliberine, gonadotrop releasing hormone; native hormone used as comparator (QHWSYGLRPG; Gonadoliberin-1; UniProt P01148 24-33, looked up) | – | ineffective | not efficacious | inefficacious |
